The results in this text go back to US20240182456A1, “2-((4-((S)-2-(4-CHLORO-2-FLUOROPHENYL)-2-METHYLBENZO[D][1,3]DIOXOL-4-YL)PIPERIDIN-1-YL)METHYL)-1-(((S)-OXETAN-2-YL)METHYL)-1H-IMIDAZOLE DERIVATIVES AS ACTIVATORS OF THE GLP1 RECEPTOR FOR THE TREATMENT OF OBESITY” (Novartis AG, priority 2021, published 2024).

This test concerns the target human GLP1R (hGLP1R) (Homo sapiens, UniProt P43220). Briefly: Human GLP1R β-arrestin recruitment assay (PathHunter). In kind it is cell-based. Also on record: insert synthesized by GeneArt 93-0164 (cells); 93-0491 (vector bundle). Particulars: CHO-hGLP1R-β-arrestin cells; for EC50: mean n=2, read-out: Beta-Arrestin assay EC50 Mean; for Emax: relative to GLP1(7-36), read-out: Beta-Arrestin assay Emax. As to the method:
Compounds 1 to 31 were tested in the following cellular assays that measure the intracellular cAMP concentration, beta-arrestin recruitment and receptor internalization. The cAMP is generated by the activation of GLP1R. The cAMP data obtained is shown in Table 1 (where S.E.M. is included, mean n=3 independent experiments+/−S.E.M). Beta-arrestin is recruited upon activation of GLP1R and the data obtained are shown in Table 2 (mean n=2 independent experiments, +/−S.D). The extent to which the GLP1R is internalized into the cell and away from the plasma membrane following activation is also shown in Table 2 (mean n=2 independent experiments, +/−S.D). EC50 for each assay is defined as the concentration of the compound that leads to half of the maximum response (after baseline correction). Emax is defined as the maximum response observed for the test compound, normalized to the maximum response observed for the endogenous ligand (GLP1(7-36)) to GLP1R.
The extent to which agonists recruited β-arrestin was measured using the PathHunter® β-arrestin assay (DiscoverX). This assay measures binding of β-arrestin to the receptor using an enzyme complementation approach. […] When β-arrestin is recruited to the receptor the enzyme becomes active and generates luminescence in the presence of a chemiluminescent substrate (PathHunter® Detection Kit, DiscoverX cat #93-0001). Luminescence can be measured on a relevant detector. CHO-hGLP1R-β-arrestin cells stably overexpressing hGLP1R with Prolink tag and β-arrestin with EA tag were seeded at 20 μL per well in white 384-well poly-D-Lysine coated plates (Greiner Bio One, cat #781945) in Plating Reagent 2 (DiscoverX, cat #93-0563R2A), and incubated overnight at 37° C., 5% CO2 with humidity. The following day, agonists were prepared at 5 times the final required concentration. To generate triplicate dose response curves, compounds were serially diluted 3-fold in assay buffer (HBSS, 10 mM Hepes and 0.1% BSA), then added to the cell assay plate to a final volume of 25 μL and final top concentrations starting at 30 μM. In the same plate and assay buffer as the tested compounds, were EC100 control wells containing GLP1 (7-36) peptide (Bachem, cat #H-6795) at a final concentration of 1 μM and also EC0 control wells containing no compound. The plate was incubated at 37° C., 5% CO2 with humidity for 2 h after adding the compounds to the cells. Then the detection reagent was prepared (19 parts cell assay buffer, 5 parts substrate reagent 1 and 1 part substrate reagent 2 as per manufacturers recommendations, DiscoverX cat #93-0001), and 12 μL were added per well to the cell assay plate. The plate was incubated for an additional hour in the dark at RT. Luminescence was then measured with an Envision 2104 Multilabel reader with “TRF Light Unit, 337 nm” (Perkin Elmer) using the Ultra-Sensitive protocol setting “384-well US luminescence detector” with the 384-well luminescence aperture, 0.1 sec per well. β-arrestin recruitment was calculated and expressed as percent of the GLP1 (7-36) EC100 control wells: [(sample signal−mean EC0 signal)/(mean EC100 of GLP1 (7-36) signal−mean EC0 signal)]*100 using Microsoft Excel. Curve fitting for EC50 determinations was performed using GraphPad Prism. The 4-parameter logistic model, Hill slope was used: Y=Bottom+(Top−Bottom)/(1+10^((Log EC50−X)*Hill Slope)), where Y is the functional response; X is the compound concentration; bottom is A0 or the minimum value (at 0 dose); top is Ainf or the maximum value (at infinite dose); EC50 is the point of inflection (i.e. the point on the sigmoid shaped curve halfway between A0 and Ainf). The EC50 value was calculated in μM. Emax is the maximal activity detected within the concentration range, derived from the fitted curve relative to GLP1(7-36). […]
(In general: Arrestin recruitment assays detect the binding of arrestin to an activated receptor.)

A value given as a limit tells only on which side of the number the result lay.

Chain of human GLP1R (hGLP1R) (P43220 24-463): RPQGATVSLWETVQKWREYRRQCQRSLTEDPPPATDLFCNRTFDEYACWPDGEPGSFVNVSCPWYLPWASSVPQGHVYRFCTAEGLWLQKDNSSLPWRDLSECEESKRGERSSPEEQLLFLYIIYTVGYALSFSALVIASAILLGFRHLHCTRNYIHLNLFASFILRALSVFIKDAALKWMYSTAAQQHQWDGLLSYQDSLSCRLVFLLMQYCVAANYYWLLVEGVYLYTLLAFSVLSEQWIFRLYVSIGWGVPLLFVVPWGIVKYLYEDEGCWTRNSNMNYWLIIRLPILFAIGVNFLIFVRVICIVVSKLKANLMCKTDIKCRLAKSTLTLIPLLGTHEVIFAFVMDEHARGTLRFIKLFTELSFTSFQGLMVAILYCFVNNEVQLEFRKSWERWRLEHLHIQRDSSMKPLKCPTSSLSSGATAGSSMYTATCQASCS

On to `C[C@]1(c2ccc(Cl)cc2F)Oc2cccc(C3CCN(Cc4nc(/C=C/C(=O)O)cn4C[C@@H]4CCO4)CC3)c2O1` [Compound C-2, (E)-3-(2-((4-((S)-2-(4-chloro-2-fluorophenyl)-2-methylbenzo[d][1,3]dioxol-4-yl)piperidin-1-yl)methyl)-1-(((S)-oxetan-2-yl)methyl)-1H-imidazol-4-yl)acrylic acid], for which the EC50 is greater than 30000 nM and the Emax turned out to be 0%.
For `Cc1nc(CN2CCC(c3cccc4c3O[C@@](C)(c3ccc(Cl)cc3F)O4)CC2)n(C[C@@H]2CCO2)c1/C=C/C(=O)O` [Compound C-5, (E)-3-(2-((4-((S)-2-(4-chloro-2-fluorophenyl)-2-methylbenzo[d][1,3]dioxol-4-yl)piperidin-1-yl)methyl)-4-methyl-1-(((S)-oxetan-2-yl)methyl)-1H-imidazol-5-yl)acrylic acid] the same measures were 404 nM and 12%.
For `C[C@]1(c2ccc(Cl)cc2F)Oc2cccc(C3CCN(Cc4nc(C(F)(F)F)c(C(=O)O)n4C[C@@H]4CCO4)CC3)c2O1` [Compound C-7, 2-((4-((S)-2-(4-chloro-2-fluorophenyl)-2-methylbenzo[d][1,3]dioxol-4-yl)piperidin-1-yl)methyl)-1-(((S)-oxetan-2-yl)methyl)-4-(trifluoromethyl)-1H-imidazole-5-carboxylic acid], in that order: greater than 30000 nM and 2%.
As to `C[C@]1(c2ccc(Cl)cc2F)Oc2cccc(C3CCN(Cc4ncc(/C=C/C(=O)O)n4C[C@@H]4CCO4)CC3)c2O1` [Compound C-1, (E)-3-(2-((4-((S)-2-(4-chloro-2-fluorophenyl)-2-methylbenzo[d][1,3]dioxol-4-yl)piperidin-1-yl)methyl)-1-(((S)-oxetan-2-yl)methyl)-1H-imidazol-5-yl)acrylic acid], the concentration giving a half-maximal response (EC50) came to 494 nM and the Emax was 9%.

By EC50 is commonly meant the concentration at which the effect is half-maximal. As a reminder, the Emax is the maximal effect, on the per cent scale that the assay sets.
